Experimental data reported in US10723711B2, “1,1,1-trifluoro-3-hydroxypropan-2-yl carbamate derivatives and 1,1,1-trifluoro-4-hydroxybutan-2-yl carbamate derivatives as MAGL inhibitors” (PFIZER INC., priority 2015, dated 2020).
Structures can show the parent of a compound that is named as a salt. Where two headings read alike, the source gives them in different places.

Target: T1, human recombinant Monoacylglycerol Lipase (Homo sapiens, UniProt Q99685)
T1 sequence (Q99685 1-303): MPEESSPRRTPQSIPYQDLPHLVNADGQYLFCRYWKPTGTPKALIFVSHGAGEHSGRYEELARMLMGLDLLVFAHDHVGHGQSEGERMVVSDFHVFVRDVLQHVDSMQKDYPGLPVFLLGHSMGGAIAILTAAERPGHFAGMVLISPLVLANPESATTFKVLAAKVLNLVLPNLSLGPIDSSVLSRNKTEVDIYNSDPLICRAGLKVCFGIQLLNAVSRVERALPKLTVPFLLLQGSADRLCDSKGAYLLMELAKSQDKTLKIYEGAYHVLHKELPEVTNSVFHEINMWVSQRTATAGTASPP
Experiment: MAGL inhibition enzymatic assay, fluorogenic substrate 7-HCA, IC50 at T=0 min or after 30 minute incubation (T=30 min)
Type: biochemical
Details: geometric mean of 2-4 determinations unless otherwise indicated
Procedure: An equal volume of 7-HCA in assay buffer with 10% DMSO was added either immediately (T=0 min) or after a 30 minute incubation (T=30 min) to initiate the reaction. […] After these dilutions, the final concentration of the test compound ranged from 3 μM to 0.03 nM. […] IC50 values were generated based on a four parameter fit model using ABASE software from IDBS.

[1] = T = 0 min (substrate added immediately), read-out: MAGL (T = 0 min) IC50
[2] = T = 30 min (30 minute incubation), read-out: MAGL (T = 30 min) IC50

| SMILES | IC50 [1] | IC50 [2] |
| --- | --- | --- |
| CN(C)CCOP(=O)(O)OC[C@@H](OC(=O)N1CCC2(CC1)CN(S(=O)(=O)c1ccc(F)cc1)CCO2)C(F)(F)F (mixture of isomers) [Example 89] | > 3000 nM | > 3000 nM |
| O=C(O[C@H](CO)C(F)(F)F)N1CCC2(CC1)CC(c1cccnc1)CO2 (mixture of isomers) [Example 122] | 385 nM | 32 nM |
| O=C(O[C@H](CO)C(F)(F)F)N1CCC2(CC1)CN(CC1CCCOC1)CCO2 (single isomer, unassigned) [Example 5] | 1700 nM | 161 nM |
| CC1N(S(=O)(=O)c2ccc(F)cc2)CCOC12CCN(C(=O)O[C@H](CO)C(F)(F)F)CC2 (single isomer, unassigned) [Example 70] | 655 nM | 69 nM |
| O=C(O[C@H](CO)C(F)(F)F)N1CCC2(CC1)CC(n1cccn1)CO2 (single isomer, unassigned) [Example 104] | 1860 nM | 157 nM |
| CN(C1COC2(CCN(C(=O)O[C@H](CO)C(F)(F)F)CC2)C1)S(=O)(=O)C1CCOCC1 (single isomer, unassigned) [Example 116] | 986 nM | 84 nM |
| CN(C1COC2(CCN(C(=O)O[C@H](CO)C(F)(F)F)CC2)C1)S(=O)(=O)C1CCOCC1 (single isomer, unassigned) [Example 117] | 1970 nM | 153 nM |
| O=C(O[C@H](CO)C(F)(F)F)N1CCC2(CC1)CC(Oc1ccccn1)CO2 (single isomer, unassigned) [Example 129] | > 3000 nM | 474 nM |
| O=C(OC(C(F)(F)F)C(F)(F)CO)N1CCC2(CC1)CN(S(=O)(=O)c1ccc(F)cc1)CCO2 (single isomer, unassigned; ent-2) [Example 21, 1,1,1,3,3-Pentafluoro-4-hydroxybutan-2-yl 4-[(4-fluorophenyl)sulfonyl]-1-oxa-4,9-diazaspiro[5.5]undecane-9-carboxylate, ENT-2] | 599 nM | 53 nM |
| O=C(O[C@H](CO)C(F)(F)F)N1C[C@@H]2CN(S(=O)(=O)c3ccc(F)c(F)c3)C[C@@H]2C1 [Example 13, (2R)-1,1,1-Trifluoro-3-hydroxypropan-2-yl (3aR,6aS)-5-[(3,4-difluorophenyl)sulfonyl]hexahydropyrrolo[3,4-c]pyrrole-2(1H)-carboxylate] | 368 nM | 35 nM |
| O=C(O[C@H](CO)C(F)(F)F)N1CCC2(CC1)CN(c1ccc(F)cn1)CCO2 [Example 14, (2R)-1,1,1-Trifluoro-3-hydroxypropan-2-yl 4-(5-fluoropyridin-2-yl)-1-oxa-4,9-diazaspiro[5.5]undecane-9-carboxylate] | 485 nM | 45 nM |
| O=C(O[C@H](CO)C(F)(F)F)N1CCC(O)(CNS(=O)(=O)c2ccccc2)CC1 [Example 16, (2R)-1,1,1-Trifluoro-3-hydroxypropan-2-yl 4-hydroxy-4-{[(phenylsulfonyl)amino]methyl}piperidine-1-carboxylate] | 1840 nM | 161 nM |
| O=C1COC2(CCN(C(=O)O[C@H](CO)C(F)(F)F)CC2)CN1Cc1ccc(F)cc1 [Example 17, (2R)-1,1,1-Trifluoro-3-hydroxypropan-2-yl 4-(4-fluorobenzyl)-3-oxo-1-oxa-4,9-diazaspiro[5.5]undecane-9-carboxylate] | 951 nM | 110 nM |
| CCC1CN(S(=O)(=O)c2ccc(F)cc2)CC2(CCN(C(=O)O[C@H](CO)C(F)(F)F)CC2)O1 (stereo partly drawn) [Example 18, (2R)-1,1,1-Trifluoro-3-hydroxypropan-2-yl 2-ethyl-4-[(4-fluorophenyl)sulfonyl]-1-oxa-4,9-diazaspiro[5.5]undecane-9-carboxylate] | 524 nM | 49 nM |
| O=C(O[C@H](CO)C(F)(F)F)N1CCC2(CC1)CN(S(=O)(=O)N1CCOCC1)CCO2 [Example 22, (2R)-1,1,1-Trifluoro-3-hydroxypropan-2-yl 4-(morpholin-4-ylsulfonyl)-1-oxa-4,9-diazaspiro[5.5]undecane-9-carboxylate] | 2640 nM | 192 nM |
| O=C(O[C@H](CO)C(F)(F)F)N1C2CCC1CN(Cc1ccc(F)cc1)C2 [Example 23, (2R)-1,1,1-Trifluoro-3-hydroxypropan-2-yl 3-(4-fluorobenzyl)-3,8-diazabicyclo[3.2.1]octane-8-carboxylate] | > 1520 nM | 78 nM |
| CN(CC1(O)CCN(C(=O)O[C@H](CO)C(F)(F)F)CC1)S(=O)(=O)c1ccccc1 [Example 24, (2R)-1,1,1-Trifluoro-3-hydroxypropan-2-yl 4-hydroxy-4-{[methyl(phenylsulfonyl)amino]methyl}piperidine-1-carboxylate] | 1900 nM | 195 nM |
| O=C(O[C@H](CO)C(F)(F)F)N1CCN(Cc2ccc(F)cc2)CC1 [Example 25, (2R)-1,1,1-trifluoro-3-hydroxypropan-2-yl 4-(4-fluorobenzyl)piperazine-1-carboxylate] | 794 nM | 71 nM |
| O=C(O[C@H](CO)C(F)(F)F)N1CCC2(CC1)CC(Nc1ccccn1)CO2 (stereo partly drawn) [Example 27, (2R)-1,1,1-Trifluoro-3-hydroxypropan-2-yl 3-(pyridin-2-ylamino)-1-oxa-8-azaspiro[4.5]decane-8-carboxylate] | 484 nM | 43 nM |
| O=C(O[C@H](CO)C(F)(F)F)N1CCC2(CC1)CN(Cc1ccc(F)cc1)S(=O)(=O)CO2 [Example 28, (2R)-1,1,1-Trifluoro-3-hydroxypropan-2-yl 4-(4-fluorobenzyl)-1-oxa-3-thia-4,9-diazaspiro[5.5]undecane-9-carboxylate 3,3-dioxide] | 696 nM | 85 nM |

| SMILES | IC50 [1] | IC50 [2] |
| --- | --- | --- |
| CN([C@H]1COC2(CCN(C(=O)O[C@H](COP(=O)(O)O)C(F)(F)F)CC2)C1)S(=O)(=O)c1ccccc1 [Example 30, (2R)-3,3,3-Trifluoro-2-[({(3R)-3-[methyl(phenylsulfonyl)amino]-1-oxa-8-azaspiro[4.5]dec-8-yl}carbonyl)oxy]propyl phosphate, disodium salt] | > 3000 nM | 549 nM |
| O=C(O[C@H](COP(=O)(O)O)C(F)(F)F)N1CCC2(CC1)CN(S(=O)(=O)c1ccc(F)cc1)CCO2 [Example 33, (2R)-3,3,3-Trifluoro-2-[({4-[(4-fluorophenyl)sulfonyl]-1-oxa-4,9-diazaspiro[5.5]undec-9-yl}carbonyl)oxy]propyl phosphate, (bis)-L-lysine salt] | > 3000 nM | > 3000 nM |
| O=C(OC(CO)C(F)(F)F)N1CCC(c2ccnc(N3CCOCC3)n2)CC1 (centres unmarked) [Example 35] | 339 nM | 32 nM |
| O=C(OC(CO)C(F)(F)F)N1CCC(c2ccn(C3CCOCC3)n2)CC1 (centres unmarked) [Example 38, 1,1,1-trifluoro-3-hydroxypropan-2-yl 4-[1-(tetrahydro-2H-pyran-4-yl)-1H-pyrazol-3-yl]piperidine-1-carboxylate] | 1470 nM | 77 nM |
| O=C(O[C@H](CO)C(F)(F)F)N1C[C@@H]2CN(S(=O)(=O)c3ccc(F)cc3)C[C@@H]2C1 [Example 40] | 494 nM | 50 nM |
| O=C(O[C@H](CO)C(F)(F)F)N1CCC2(CCCN(Cc3ccc(F)cc3)C2)CC1 [Example 41] | 1580 nM | 166 nM |
| O=C(O[C@H](CO)C(F)(F)F)N1CCC(O)(CN(Cc2ccc(F)cc2)C2CCOCC2)CC1 [Example 46] | 560 nM | 46 nM |
| O=C(O[C@H](CO)C(F)(F)F)N1C[C@@H]2CN(c3cc(C4CC4)ccn3)C[C@@H]2C1 [Example 48] | > 3000 nM | 926 nM |
| O=C(O[C@H](CO)C(F)(F)F)N1CCC2(CC1)CN(S(=O)(=O)C1CCOCC1)CCO2 [Example 49] | > 3000 nM | 654 nM |
| O=C(O[C@H](CO)C(F)(F)F)N1CCC(CN(Cc2ccc(F)cc2)C2CCOCC2)CC1 [Example 50] | 857 nM | 71 nM |
| O=C(O[C@H](CO)C(F)(F)F)N1CCC2(CC1)CN(S(=O)(=O)CCCN1CCCC1)CCO2 [Example 54] | > 3000 nM | > 1680 nM |
| O=C(O[C@H](CO)C(F)(F)F)N1CCC2(CC1)CN(S(=O)(=O)CCc1ccccn1)CCO2 [Example 55] | 447 nM | 43 nM |
| O=C(O[C@H](CO)C(F)(F)F)N1CCC2(CC1)CN(S(=O)(=O)CCCn1ccnc1)CCO2 [Example 56] | 2340 nM | 167 nM |
| Cc1cnc(OC2CCN(C(=O)O[C@H](CO)C(F)(F)F)CC2)nc1-c1ccnn1C [Example 58] | 249 nM | 33 nM |
| Cn1nccc1-c1ccnc(OC2CCN(C(=O)O[C@H](CO)C(F)(F)F)CC2)c1 [Example 64] | 550 nM | 42 nM |
| Cn1nccc1-c1cccc(OC2CCN(C(=O)O[C@H](CO)C(F)(F)F)CC2)n1 [Example 65] | 359 nM | 30 nM |
| O=C(O[C@H](CO)C(F)(F)F)N1CCC2(CC1)CN(Cc1ccc(F)cc1)C(=O)O2 [Example 72] | 220 nM | 28 nM |
| O=C(O[C@H](CO)C(F)(F)F)N1CCC2(CC1)CN(S(=O)(=O)NCc1ccccn1)CCO2 [Example 74] | 392 nM | 52 nM |
| O=C(O[C@H](CO)C(F)(F)F)N1CCC(Oc2ccc(CO)cn2)CC1 [Example 75] | 688 nM | 79 nM |
| Cc1cnc(N2CCOC3(CCN(C(=O)O[C@H](CO)C(F)(F)F)CC3)C2)nc1 [Example 76] | 658 nM | 83 nM |
